Test system: P12-Ichikawa
Experiment: cell viability relative to DMSO control; higher = less cytotoxic
Settings: 48 h
Method in brief: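 NOMO1 or SEM (500 cells/well) or P12-Ichikawa (1000 cells/well) leukemia cells were adapted for at least four passages in each medium. They were seeded in 1536-well plates (5 μl) and pin-dosed with library compounds in DMSO over an 11-point threefold series, 47 μM to 0.79 nM. CellTiter-Glo One luminescence was read after 48 h at 37°C. Viability is the per-plate percentage relative to DMSO wells, with cell-free wells as background.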

[1] = HPLM + 10% dialyzed FBS, 0.000781 µM
[2] = HPLM + 10% dialyzed FBS, 0.00234 µM
[3] = HPLM + 10% dialyzed FBS, 0.00702 µM
[4] = HPLM + 10% dialyzed FBS, 0.0211 µM
[5] = HPLM + 10% dialyzed FBS, 0.0632 µM
[6] = HPLM + 10% dialyzed FBS, 0.19 µM
[7] = HPLM + 10% dialyzed FBS, 0.569 µM
[8] = HPLM + 10% dialyzed FBS, 1.71 µM
[9] = HPLM + 10% dialyzed FBS, 5.12 µM
[10] = HPLM + 10% dialyzed FBS, 15.4 µM
[11] = HPLM + 10% dialyzed FBS, 46.1 µM
[12] = RPMI 5 mM glucose + 10% FBS, 0.000781 µM
[13] = RPMI 5 mM glucose + 10% FBS, 0.00234 µM
[14] = RPMI 5 mM glucose + 10% FBS, 0.00702 µM
[15] = RPMI 5 mM glucose + 10% FBS, 0.0211 µM
[16] = RPMI 5 mM glucose + 10% FBS, 0.0632 µM
[17] = RPMI 5 mM glucose + 10% FBS, 0.19 µM
[18] = RPMI 5 mM glucose + 10% FBS, 0.569 µM
[19] = RPMI 5 mM glucose + 10% FBS, 1.71 µM
[20] = RPMI 5 mM glucose + 10% FBS, 5.12 µM
[21] = RPMI 5 mM glucose + 10% FBS, 15.4 µM
[22] = RPMI 5 mM glucose + 10% FBS, 46.1 µM
[23] = RPMI 5 mM glucose + 10% dialyzed FBS, 0.000781 µM
[24] = RPMI 5 mM glucose + 10% dialyzed FBS, 0.00234 µM
[25] = RPMI 5 mM glucose + 10% dialyzed FBS, 0.00702 µM
[26] = RPMI 5 mM glucose + 10% dialyzed FBS, 0.0211 µM
[27] = RPMI 5 mM glucose + 10% dialyzed FBS, 0.0632 µM
[28] = RPMI 5 mM glucose + 10% dialyzed FBS, 0.19 µM
[29] = RPMI 5 mM glucose + 10% dialyzed FBS, 0.569 µM
[30] = RPMI 5 mM glucose + 10% dialyzed FBS, 1.71 µM
[31] = RPMI 5 mM glucose + 10% dialyzed FBS, 5.12 µM
[32] = RPMI 5 mM glucose + 10% dialyzed FBS, 15.4 µM
[33] = RPMI 5 mM glucose + 10% dialyzed FBS, 46.1 µM

Row | Structure (SMILES) | cell viability [1] [%] | cell viability [2] [%] | cell viability [3] [%] | cell viability [4] [%] | cell viability [5] [%] | cell viability [6] [%] | cell viability [7] [%] | cell viability [8] [%] | cell viability [9] [%] | cell viability [10] [%] | cell viability [11] [%] | cell viability [12] [%] | cell viability [13] [%] | cell viability [14] [%] | cell viability [15] [%] | cell viability [16] [%] | cell viability [17] [%] | cell viability [18] [%] | cell viability [19] [%] | cell viability [20] [%] | cell viability [21] [%] | cell viability [22] [%] | cell viability [23] [%] | cell viability [24] [%] | cell viability [25] [%] | cell viability [26] [%] | cell viability [27] [%] | cell viability [28] [%] | cell viability [29] [%] | cell viability [30] [%] | cell viability [31] [%] | cell viability [32] [%] | cell viability [33] [%]
1 | CSC1=CC(=CC=C1)NC2=NC3=C(C=N2)/C=C(C(=O)N3C)/C4=C(Cl)C=CC=C4Cl | 102 | 95 | 101 | 98.3 | 106 | 110 | 99.2 | 105 | 97.4 | 95.1 | 103 | 99.6 | 111 | 115 | 109 | 115 | 106 | 112 | 112 | 109 | 95.5 | 102 | 110 | 109 | 110 | 90.8 | 110 | 120 | 112 | 112 | 109 | 97.5 | 97.7
2 | O=C(O)c1ccc2cc(-c3ccc(O)c(C45CC6CC(CC(C6)C4)C5)c3)ccc2c1 | 124 | 119 | 124 | 121 | 121 | 107 | 66.5 | 19.2 | 10.4 | 9.2 | 7.25 | 116 | 123 | 134 | 122 | 117 | 96.9 | 57.1 | 16 | 8.71 | 8.22 | 5.78 | – | – | – | – | – | – | – | – | – | – | –
3 | COC[C@H](NC(=O)c1cnc(C)s1)C(=O)N[C@@H](COC)C(=O)N[C@@H](Cc1ccccc1)C(=O)[C@@]1(C)CO1 | 96.6 | 99.8 | 98.3 | 95 | 105 | 69.8 | 4.41 | 3.23 | 1.91 | 1.12 | 2.28 | 89 | 98.2 | 99.8 | 96.3 | 89.8 | 78.5 | 3.57 | 2.76 | 1.79 | 1.04 | 1.83 | 90.8 | 93.5 | 94.3 | 95.7 | 87.4 | 58.1 | 3.41 | 2.83 | 1.67 | 0.842 | 1.82
4 | Cc1cc(O)c2c3c4c(cc(O)c13)C(C)(C)C(=O)c1c(O)cc(O)c(c1-4)C2=O | 104 | 108 | 111 | 107 | 111 | 106 | 113 | 107 | 106 | 105 | 39 | 107 | 106 | 109 | 99.8 | 114 | 107 | 115 | 109 | 110 | 97.2 | 42.2 | 103 | 112 | 117 | 109 | 107 | 101 | 111 | 104 | 105 | 93.2 | 35.2
5 | CN1C(=O)\C(=C/C(=C1/NC2=C(F)C=C(I)C=C2)C(=O)NOCCO)C | 94.6 | 99.5 | 103 | 93.4 | 90.4 | 90.1 | 94.5 | 88.9 | 94.5 | 87.7 | 78.1 | 98.2 | 104 | 98.9 | 90.7 | 88.8 | 85.3 | 85.5 | 84.7 | 85.7 | 87.1 | 81.1 | 94.6 | 105 | 96.2 | 99.6 | 92.3 | 90.7 | 95.8 | 90.9 | 101 | 91 | 74.9
6 | CCOC(=O)Nc1ccc(NCc2ccc(F)cc2)cc1N | 112 | 116 | 116 | 121 | 115 | 110 | 107 | 112 | 101 | 98.6 | 78.6 | 113 | 122 | 122 | 109 | 122 | 114 | 118 | 114 | 109 | 107 | 102 | 118 | 113 | 122 | 118 | 110 | 121 | 113 | 111 | 98.3 | 103 | 87.4
7 | O=C1Nc2ccccc2/C1=C1\Nc2ccccc2C1=O | 106 | 106 | 109 | 102 | 104 | 101 | 104 | 103 | 94.9 | 104 | 97.9 | 101 | 111 | 103 | 105 | 110 | 108 | 104 | 104 | 95.9 | 99.7 | 98 | 99.3 | 102 | 105 | 91.2 | 104 | 97.1 | 106 | 94.9 | 93.1 | 102 | 83.4
8 | Cc1c[nH]c(/C=C2\C(=O)Nc3ccccc32)c1CCC(=O)O | 109 | 107 | 111 | 108 | 101 | 111 | 97.2 | 96.5 | 79.2 | 76.5 | 79.8 | 111 | 108 | 115 | 122 | 103 | 118 | 95.2 | 93.1 | 67.2 | 65.8 | 65.7 | 122 | 118 | 123 | 127 | 105 | 106 | 94.7 | 92.4 | 71.7 | 67.3 | 68.7
9 | O=C1c2c(O)cccc2[C@H]([C@@H]2O[C@H](CO)[C@@H](O)[C@H](O)[C@H]2O)c2cc(CO)cc(O)c21 | 91 | 95.8 | 95.1 | 107 | 107 | 98.7 | 106 | 99.4 | 103 | 98.4 | 103 | 93.9 | 93.3 | 102 | 109 | 105 | 109 | 108 | 106 | 101 | 106 | 106 | 91 | 96.4 | 90.9 | 96.8 | 106 | 95.2 | 97 | 95.7 | 103 | 99.4 | 99
10 | CC1SC/2=C(C(O)=O)/C(=O)C3=CC(=C(C=C3N12)N4CCN(CC4)C\C5=C(C)\OC(=O)O5)F (stereo not given) | 134 | 122 | 121 | 124 | 125 | 123 | 119 | 117 | 113 | 112 | 102 | – | – | – | – | – | – | – | – | – | – | – | – | – | – | – | – | – | – | – | – | – | –
11 | Fc1cc(-c2cccc3ncc(-c4cnn(C5CCNCC5)c4)nc23)cc(F)c1CN1CCOCC1 | 119 | 113 | 122 | 115 | 123 | 118 | 108 | 113 | 68.8 | 57.7 | 28.9 | 122 | 123 | 120 | 118 | 122 | 118 | 118 | 120 | 91.2 | 70.7 | 27.1 | 119 | 122 | 119 | 114 | 110 | 120 | 123 | 101 | 87.2 | 60.1 | 15.1
12 | Clc1cccc(-c2nnnn2Cc2cccnc2)c1Cl | 88.7 | 96 | 92.4 | 95.5 | 94.9 | 87.4 | 77.9 | 74.1 | 74.5 | 70.4 | 56.6 | 88.5 | 91.2 | 86.6 | 91.1 | 96.1 | 93.7 | 94.9 | 65.7 | 57 | 60.6 | 56.7 | 86.1 | 91.3 | 93.9 | 95.2 | 93.8 | 88.9 | 86.4 | 64.3 | 61.8 | 65.7 | 48.6
13 | NC1CCC(N[C@@H]2C[C@H]2c2ccccc2)CC1 (stereo not given in full) | 87.9 | 92.4 | 94.6 | 94.5 | 102 | 102 | 105 | 99.5 | 106 | 94.7 | 98.5 | 92 | 94.6 | 106 | 102 | 102 | 100 | 95 | 76.6 | 100 | 102 | 91.2 | 92.2 | 98.1 | 105 | 99 | 96.5 | 109 | 103 | 97.8 | 98.2 | 88.9 | 84
14 | COc1ccc(/C=C\c2cc(OC)c(OC)c(OC)c2)cc1O | 21 | 15 | 12.9 | 11.3 | 11.9 | 9.68 | 9.98 | 8.29 | 5.6 | 4.13 | 3.74 | 27.5 | 22 | 13.8 | 14.2 | 11.2 | 11.2 | 10.4 | 10.6 | 7.66 | 3.98 | 2.78 | 33.5 | 26.7 | 20.4 | 14.9 | 15.3 | 14.3 | 13.1 | 11 | 9.65 | 7.03 | 3.92
15 | Cc1ccc(-n2nc(C(C)(C)C)cc2NC(=O)Nc2ccc(OCCN3CCOCC3)c3ccccc23)cc1 | 106 | 112 | 113 | 115 | 111 | 117 | 119 | 126 | 114 | 109 | 102 | 106 | 107 | 103 | 97.7 | 113 | 112 | 113 | 117 | 112 | 88.7 | 85.2 | 105 | 100 | 112 | 121 | 109 | 116 | 125 | 126 | 116 | 97.5 | 104
16 | CC(C)(C)OC(=O)CN(Cc1ccc(Cl)cc1)Cc1ccc([N+](=O)[O-])s1 | 99.7 | 107 | 107 | 101 | 99 | 98.3 | 96.2 | 96.5 | 91.6 | 93 | 73.6 | 92.8 | 99.2 | 89 | 97.1 | 88.2 | 99.2 | 93.3 | 99.9 | 92.8 | 88.9 | 69.3 | 99 | 90.7 | 95.9 | 92 | 94.9 | 92 | 87.9 | 86.6 | 82.4 | 91.2 | 62.6

Source: the supplement of paper PMC11451515
